Measurements reported in US20230081426A1, “COMPOUNDS AND METHODS FOR KRAS MODULATION AND INDICATIONS THEREFOR” (Plexxikon Inc., priority 2020, published 2023).

These compounds were tested against T1, G12D-mutant human KRAS (amino acid residues 1-188) (Homo sapiens, UniProt P01116, G12D) (assay: KRAS Binding Disruption Assay (AlphaScreen; biotinylated KRpep-2d analogue or RAF1-RBD), G12D). Details: KRAS G12D; geometric mean; read-out: KRAS GMean IC50 (uM) MUTATION: G12D.
T1 construct: G12D or G12C-mutant human KRAS (amino acid residues 1-188) with FLAG tag; made in house; host or cells: E. coli
Procedure: Compound binding disrupts the interaction of KRpep-2d or RAF1-RBD with KRAS, leading to a decrease in Alpha signal.
All assay components were prepared in 20 mM HEPES (pH 7.5), 100 mM NaCl, 5 mM MgCl2, 0.01% Tween-20, and 0.01% BSA. Biotinylated analogues of KRpep-2d were custom synthesized. The binding disruption assays were performed using 5-20 nM of mutant KRAS and 5-20 nM of either biotinylated KRpep-2d analogue or RAF1-RBD. 19 μL of KRAS protein and 4 μL of biotinylated KRpep-2d or RAF1-RBD were added to the wells of a 384-well plate containing 1 μL of various concentrations of test compound or DMSO vehicle. 16 wells containing KRAS, biotinylated KRpep-2d or RAF1-RBD, and 5% DMSO served as high controls. 16 wells containing KRAS only and 5% DMSO served as low controls. Binding reactions were incubated for 1 hour at 25° C., then Anti-Flag Acceptor and Streptavidin Donor Alpha beads were added at a final concentration of 10 μg/mL for an additional hour at room temperature. Alpha signal was read out on a Perkin Elmer Envision HTS instrument. The percentage inhibition at individual compound concentrations relative to high and low controls was calculated. The data were analyzed by using nonlinear regression to generate IC50 values.

T1 sequence (P01116 1-188 isoform P01116-2 G12D): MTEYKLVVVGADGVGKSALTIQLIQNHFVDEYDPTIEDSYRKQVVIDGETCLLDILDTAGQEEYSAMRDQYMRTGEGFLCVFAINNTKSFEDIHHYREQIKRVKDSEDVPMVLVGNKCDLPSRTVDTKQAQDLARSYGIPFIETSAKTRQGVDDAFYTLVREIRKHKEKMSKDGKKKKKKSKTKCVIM

Row | SMILES | IC50 [µM]
1 | Oc1cc(-c2ccc3c(N4C[C@H]5CC[C@@H](C4)N5)nc(N4CCC5(CCOCC5)C4)nc3c2F)c2ccccc2c1 [P-0527, 4-(4-((1R,5S)-3,8-diazabicyclo[3.2.1]octan-3-yl)-8-fluoro-2-(8-oxa-2-azaspiro[4.5]decan-2-yl)quinazolin-7-yl)naphthalen-2-ol] | 0.0001 to 10
2 | Oc1cc(-c2ccc3c(N4C[C@H]5CC[C@@H](C4)N5)nc(N4CCC5(CCOC5)C4)nc3c2F)c2ccccc2c1 (stereo partly drawn) [P-0528, 4-(4-((1R,5S)-3,8-diazabicyclo[3.2.1]octan-3-yl)-8-fluoro-2-(2-oxa-7-azaspiro[4.4]nonan-7-yl)quinazolin-7-yl)naphthalen-2-ol] | 0.0001 to 10
3 | CNCC1(CC#N)CCN(c2nc(N3C[C@H]4CC[C@@H](C3)N4)c3ccc(-c4cc(O)cc5ccccc45)c(F)c3n2)C1 (stereo partly drawn) [P-0529, 2-(1-(4-((1R,5S)-3,8-diazabicyclo[3.2.1]octan-3-yl)-8-fluoro-7-(3-hydroxynaphthalen-1-yl)quinazolin-2-yl)-3-((methylamino)methyl)pyrrolidin-3-yl)acetonitrile] | 0.0001 to 10
4 | CCN(CC)C1CCN(c2nc(N3C[C@H]4CC[C@@H](C3)N4)c3ccc(-c4cc(O)cc5ccccc45)c(F)c3n2)C1 (stereo partly drawn) [P-0530, 4-(4-((1R,5S)-3,8-diazabicyclo[3.2.1]octan-3-yl)-2-(3-(diethylamino)pyrrolidin-1-yl)-8-fluoroquinazolin-7-yl)naphthalen-2-ol] | 0.0001 to 10
5 | CCNC1CCN(c2nc(N3C[C@H]4CC[C@@H](C3)N4)c3ccc(-c4cc(O)cc5ccccc45)c(F)c3n2)C1 (stereo partly drawn) [P-0531, 4-(4-((1R,5S)-3,8-diazabicyclo[3.2.1]octan-3-yl)-2-(3-(ethylamino)pyrrolidin-1-yl)-8-fluoroquinazolin-7-yl)naphthalen-2-ol] | 0.0001 to 10
6 | Oc1cc(-c2c(Cl)cc3c(N4C[C@H]5CC[C@@H](C4)N5)nc(OCCCN4CCC(F)(F)C4)nc3c2F)c2ccccc2c1 [P-0532, 4-(4-((1R,5S)-3,8-diazabicyclo[3.2.1]octan-3-yl)-6-chloro-2-(3-(3,3-difluoropyrrolidin-1-yl)propoxy)-8-fluoroquinazolin-7-yl)naphthalen-2-ol] | 0.0001 to 10
7 | Fc1c(-c2csc3ccccc23)ccc2c(N3C[C@H]4CC[C@@H](C3)N4)nc(OCC34CCCN3CCC4)nc12 [P-0533, 7-(benzo[b]thiophen-3-yl)-4-((1R,5S)-3,8-diazabicyclo[3.2.1]octan-3-yl)-8-fluoro-2-((tetrahydro-1H-pyrrolizin-7a(5H)-yl)methoxy)quinazoline] | 0.0001 to 10
8 | Fc1c(-c2csc3cccc(Cl)c23)ccc2c(N3C[C@H]4CC[C@@H](C3)N4)nc(OCC34CCCN3CCC4)nc12 [P-0534] | 0.0001 to 10
9 | CCc1cc(F)cc2[nH]cc(-c3ccc4c(N5C[C@H]6CC[C@@H](C5)N6)nc(OCC56CCCN5CCC6)nc4c3F)c12 [P-0535, 4-((1R,5S)-3,8-diazabicyclo[3.2.1]octan-3-yl)-7-(4-ethyl-6-fluoro-1H-indol-3-yl)-8-fluoro-2-((tetrahydro-1H-pyrrolizin-7a(5H)-yl)methoxy)quinazoline] | 0.0001 to 10
10 | Oc1cc(-c2ccc3c(N4C[C@H]5CC[C@@H](C4)N5)nc(OCC4(C(F)(F)F)CC4)nc3c2F)c2ccccc2c1 [P-0536, 4-(4-((1R,5S)-3,8-diazabicyclo[3.2.1]octan-3-yl)-8-fluoro-2-((1-(trifluoromethyl)cyclopropyl)methoxy)quinazolin-7-yl)naphthalen-2-ol] | 0.0001 to 10
11 | CC(C)(CNC(=O)CO)COc1nc(N2C[C@H]3CC[C@@H](C2)N3)c2ccc(-c3cc(O)cc4ccccc34)c(F)c2n1 [P-0537, N-(3-((4-((1R,5S)-3,8-diazabicyclo[3.2.1]octan-3-yl)-8-fluoro-7-(3-hydroxynaphthalen-1-yl)quinazolin-2-yl)oxy)-2,2-dimethylpropyl)-2-hydroxyacetamide] | 0.0001 to 10
12 | C=Cc1cccc2cccc(-c3ccc4c(N5C[C@H]6CC[C@@H](C5)N6)nc(OCC56CCCN5CCC6)nc4c3F)c12 [P-0538, 4-((1R,5S)-3,8-diazabicyclo[3.2.1]octan-3-yl)-8-fluoro-2-((tetrahydro-1H-pyrrolizin-7a(5H)-yl)methoxy)-7-(8-vinylnaphthalen-1-yl)quinazoline] | 0.0001 to 10
13 | O=[N+]([O-])c1cccc2cncc(-c3ccc4c(N5C[C@H]6CC[C@@H](C5)N6)nc(OCC56CCCN5CCC6)nc4c3F)c12 [P-0539, 4-((1R,5S)-3,8-diazabicyclo[3.2.1]octan-3-yl)-8-fluoro-7-(5-nitroisoquinolin-4-yl)-2-((tetrahydro-1H-pyrrolizin-7a(5H)-yl)methoxy)quinazoline] | 0.0001 to 10
14 | Nc1ccc(Cl)c(-c2c(Cl)cc3c(N4C[C@H]5CC[C@@H](C4)N5)nc(OCC45CCCN4CCC5)nc3c2F)c1 [P-0540, 3-(4-((1R,5S)-3,8-diazabicyclo[3.2.1]octan-3-yl)-6-chloro-8-fluoro-2-((tetrahydro-1H-pyrrolizin-7a(5H)-yl)methoxy)quinazolin-7-yl)-4-chloroaniline] | 0.0001 to 10
15 | CC(C)(CO)COc1nc(N2C[C@H]3CC[C@@H](C2)N3)c2ccc(-c3cccc4cccc(Cl)c34)c(F)c2n1 [P-0541, 3-((4-((1R,5S)-3,8-diazabicyclo[3.2.1]octan-3-yl)-7-(8-chloronaphthalen-1-yl)-8-fluoroquinazolin-2-yl)oxy)-2,2-dimethylpropan-1-ol] | 0.0001 to 10
16 | CS(=O)(=O)NCCN1[C@@H]2CC[C@H]1CN(c1nc(OCC34CCCN3CCC4)nc3c(F)c(-c4cc(O)cc5ccccc45)ccc13)C2 [P-0542, N-(2-((1R,5S)-3-(8-fluoro-7-(3-hydroxynaphthalen-1-yl)-2-((tetrahydro-1H-pyrrolizin-7a(5H)-yl)methoxy)quinazolin-4-yl)-3,8-diazabicyclo[3.2.1]octan-8-yl)ethyl)methanesulfonamide] | 0.0001 to 10
17 | NC(=O)NCCN1[C@@H]2CC[C@H]1CN(c1nc(OCC34CCCN3CCC4)nc3c(F)c(-c4cc(O)cc5ccccc45)ccc13)C2 [P-0543, 1-(2-((1R,5S)-3-(8-fluoro-7-(3-hydroxynaphthalen-1-yl)-2-((tetrahydro-1H-pyrrolizin-7a(5H)-yl)methoxy)quinazolin-4-yl)-3,8-diazabicyclo[3.2.1]octan-8-yl)ethyl)urea] | 0.0001 to 10
18 | CC(=O)NCCN1[C@@H]2CC[C@H]1CN(c1nc(OCC34CCCN3CCC4)nc3c(F)c(-c4cc(O)cc5ccccc45)ccc13)C2 [P-0544, N-(2-((1R,5S)-3-(8-fluoro-7-(3-hydroxynaphthalen-1-yl)-2-((tetrahydro-1H-pyrrolizin-7a(5H)-yl)methoxy)quinazolin-4-yl)-3,8-diazabicyclo[3.2.1]octan-8-yl)ethyl)acetamide] | 0.0001 to 10
19 | NCCN1[C@@H]2CC[C@H]1CN(c1nc(OCC34CCCN3CCC4)nc3c(F)c(-c4cc(O)cc5ccccc45)ccc13)C2 [P-0545, 4-(4-((1R,5S)-8-(2-aminoethyl)-3,8-diazabicyclo[3.2.1]octan-3-yl)-8-fluoro-2-((tetrahydro-1H-pyrrolizin-7a(5H)-yl)methoxy)quinazolin-7-yl)naphthalen-2-ol] | 0.0001 to 10
20 | NC1(CCO)CN(c2nc(N3C[C@H]4CC[C@@H](C3)N4)c3ccc(-c4cc(O)cc5ccccc45)c(F)c3n2)C1 [P-0546, 4-(2-(3-amino-3-(2-hydroxyethyl)azetidin-1-yl)-4-((1R,5S)-3,8-diazabicyclo[3.2.1]octan-3-yl)-8-fluoroquinazolin-7-yl)naphthalen-2-ol] | 0.0001 to 10
21 | O=C1NC2(CCO1)CN(c1nc(N3C[C@H]4CC[C@@H](C3)N4)c3ccc(-c4cc(O)cc5ccccc45)c(F)c3n1)C2 [P-0547, 2-(4-((1R,5S)-3,8-diazabicyclo[3.2.1]octan-3-yl)-8-fluoro-7-(3-hydroxynaphthalen-1-yl)quinazolin-2-yl)-7-oxa-2,5-diazaspiro[3.5]nonan-6-one] | 0.0001 to 10
22 | Cc1ccc2[nH]nc(C)c2c1-c1ccc2c(N3C[C@H]4CC[C@@H](C3)N4)nc(OCC34CCCN3CCC4)nc2c1F [P-0548, 4-((1R,5S)-3,8-diazabicyclo[3.2.1]octan-3-yl)-7-(3,5-dimethyl-1H-indazol-4-yl)-8-fluoro-2-((tetrahydro-1H-pyrrolizin-7a(5H)-yl)methoxy)quinazoline] | 0.0001 to 10
23 | CCc1cccc2[nH]cc(-c3ncc4c(N5C[C@H]6CC[C@@H](C5)N6)nc(OCC56CCCN5CCC6)nc4c3F)c12 [P-0549, 4-((1R,5S)-3,8-diazabicyclo[3.2.1]octan-3-yl)-7-(4-ethyl-1H-indol-3-yl)-8-fluoro-2-((tetrahydro-1H-pyrrolizin-7a(5H)-yl)methoxy)pyrido[4,3-d]pyrimidine] | 0.0001 to 10
24 | NC(=O)CN1[C@@H]2CC[C@H]1CN(c1nc(OCC34CCCN3CCC4)nc3c(F)c(-c4cc(O)cc5ccccc45)ccc13)C2 [P-0550, 2-((1R,5S)-3-(8-fluoro-7-(3-hydroxynaphthalen-1-yl)-2-((tetrahydro-1H-pyrrolizin-7a(5H)-yl)methoxy)quinazolin-4-yl)-3,8-diazabicyclo[3.2.1]octan-8-yl)acetamide] | 0.0001 to 10
